# Assay results reported in patent US10618918B2, “Substituted boronic acids as antimicrobials” (priority 2015, dated 2020).
# pKi: −log10 of the molar value. Where two headings read alike, the source gives them in different places.
# How the values were obtained:
# KP1086 OXA-48 = test: Biapenem potentiation (MPC@1), strain KP1086 OXA-48; assay type: cell-based; settings: minimum BLI concentration inhibiting growth with biapenem 1 μg/mL; tested up to 40 μg/mL
# Procedure: (§1) Biapenem was present in the test medium at 1 μg/mL. […] Table 3 summarizes the BLI potency of biapenem potentiation (MPC@1) for two strains overexpressing class A (KPC) and class D (OXA-48) carbapenemases. Biapenem MIC for each strain is also shown.
# KP1010 SHV-12 = test: Aztreonam potentiation (MPC@4), strain KP1010 SHV-12
# AB1053 OXA-72 = test: Meropenem potentiation (MPC@8), strain AB1053 OXA-72; assay type: cell-based, Acinetobacter baumannii; settings: minimum BLI concentration inhibiting growth with meropenem 8 μg/mL; tested up to 20 μg/mL
# KP1004 KPC-2 [1] = test: Biapenem potentiation (MPC@1), strain KP1004 KPC-2; assay type: cell-based; settings: minimum BLI concentration inhibiting growth with biapenem 1 μg/mL; tested up to 40 μg/mL
# Procedure: as §1
# ec302 TEM-10 = test: Aztreonam potentiation (MPC@4), strain ec302 TEM-10; settings: minimum BLI concentration inhibiting growth with aztreonam 4 μg/mL; tested up to 40 μg/mL
# EC1010 CMY-6 = test: Aztreonam potentiation (MPC@4), strain EC1010 CMY-6
# AB1054 OXA-23 = test: Meropenem potentiation (MPC@8), strain AB1054 OXA-23; assay type: cell-based, Acinetobacter baumannii
# KP1005 CTX-M-14 = test: Tigemonam potentiation (MPC@4), strain KP1005 CTX-M-14
# KP1004 KPC-2 [2] = test: Aztreonam potentiation (MPC@4), strain KP1004 KPC-2
# ECL1002 = test: Aztreonam potentiation (MPC@4), strain ECL1002; settings: minimum BLI concentration inhibiting growth with aztreonam 4 μg/mL; tested up to 40 μg/mL
# [3] = target: purified class A, C and D enzymes (β-lactamases) (Escherichia coli, UniProt Q9L5C7); test: biochemical; assay type: biochemical
# Chain of purified class A, C and D enzymes (β-lactamases) (Escherichia coli, UniProt Q9L5C7) (Q9L5C7 entry or part of it): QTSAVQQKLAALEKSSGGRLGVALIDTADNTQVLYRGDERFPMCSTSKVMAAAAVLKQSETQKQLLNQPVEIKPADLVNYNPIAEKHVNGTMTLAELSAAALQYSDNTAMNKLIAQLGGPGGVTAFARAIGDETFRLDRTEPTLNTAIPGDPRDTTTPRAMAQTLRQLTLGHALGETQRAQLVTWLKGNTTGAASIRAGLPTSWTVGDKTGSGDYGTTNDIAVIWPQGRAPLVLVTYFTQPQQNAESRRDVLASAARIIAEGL
# [4] = target: purified class A, C and D enzymes (β-lactamases) (Enterobacter cloacae, UniProt P05364); test: biochemical; assay type: biochemical
# Chain of purified class A, C and D enzymes (β-lactamases) (Enterobacter cloacae, UniProt P05364) (P05364 21-381): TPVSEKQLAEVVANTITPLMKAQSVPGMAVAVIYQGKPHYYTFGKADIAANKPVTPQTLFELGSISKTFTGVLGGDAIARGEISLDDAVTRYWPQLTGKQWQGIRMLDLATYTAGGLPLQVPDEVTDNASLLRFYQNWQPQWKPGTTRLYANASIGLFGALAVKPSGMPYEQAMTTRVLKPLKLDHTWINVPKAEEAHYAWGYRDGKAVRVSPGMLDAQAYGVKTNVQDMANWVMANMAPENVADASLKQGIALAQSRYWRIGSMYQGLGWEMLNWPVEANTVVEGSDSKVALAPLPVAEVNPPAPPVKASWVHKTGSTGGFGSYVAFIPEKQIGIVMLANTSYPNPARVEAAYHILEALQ
# biochemical = assay type: biochemical
# [5] = target: purified class A, C and D enzymes (β-lactamases) (Klebsiella pneumoniae, UniProt Q9F663); test: biochemical; assay type: biochemical
# [6] = target: T1, purified class A, C and D enzymes (β-lactamases) (Pseudomonas aeruginosa, UniProt P24735); test: biochemical; assay type: biochemical
# T1 construct: rows headed: Ki (Pa-AmpC, NCF), uM; other: purified Pa-AmpC; nitrocefin (NCF) as reporter substrate
# T1 sequence (P24735 whole entry): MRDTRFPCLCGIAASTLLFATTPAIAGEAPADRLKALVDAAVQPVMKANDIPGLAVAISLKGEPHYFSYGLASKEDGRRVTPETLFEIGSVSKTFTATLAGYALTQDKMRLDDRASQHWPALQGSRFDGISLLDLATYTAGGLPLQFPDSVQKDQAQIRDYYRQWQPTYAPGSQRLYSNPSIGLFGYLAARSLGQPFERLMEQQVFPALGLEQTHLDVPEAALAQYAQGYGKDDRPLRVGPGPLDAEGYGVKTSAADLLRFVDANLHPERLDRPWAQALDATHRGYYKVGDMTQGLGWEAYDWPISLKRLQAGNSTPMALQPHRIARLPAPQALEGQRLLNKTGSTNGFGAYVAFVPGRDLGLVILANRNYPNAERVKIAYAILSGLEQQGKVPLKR
# [7] = target: purified class A, C and D enzymes (β-lactamases) (Klebsiella pneumoniae, UniProt Q6XEC0); test: biochemical; assay type: biochemical
# PAM1154/KPC-2 = test: Biapenem potentiation MPC64 in PAM1154/KPC-2 (efflux deficient, lacks MexAB-OprM); assay type: cell-based, Pseudomonas aeruginosa
# Procedure: (§2) Efflux of BLIs from Pseudomonas aeruginosa by the MexAB-OprM efflux pump was also evaluated. The plasmid expressing the gene encoding KPC-2 was introduced into two strains of P. aeruginosa, PAM1032 and PAM 1154 that overexpressed or lacked MexAB-OprM, respectively. […] Potency of BLIs to potentiate biapenem in these strains was determined.
# PAM1032/KPC-2 = test: Biapenem potentiation MPC64 in PAM1032/KPC-2 (efflux proficient, overexpresses MexAB-OprM); assay type: cell-based, Pseudomonas aeruginosa
# Procedure: as §2
# ec308 SHV-5 = test: Aztreonam potentiation (MPC@4), strain ec308 SHV-5; settings: minimum BLI concentration inhibiting growth with aztreonam 4 μg/mL; tested up to 40 μg/mL
# KP1009 CTX-M-15 = test: Aztreonam potentiation (MPC@4), strain KP1009 CTX-M-15; settings: minimum BLI concentration inhibiting growth with aztreonam 4 μg/mL; tested up to 40 μg/mL
# [8] = target: T2, purified class A, C and D enzymes (β-lactamases) (UniProt P0AD64, L31Q/G234S/E235K, species not given); test: biochemical; assay type: biochemical; settings: purified SHV-12; nitrocefin (NCF) as reporter substrate; read-out: Ki (SHV-12, NCF)
# T2 construct: Ki (SHV-12, NCF), uM; other: purified SHV-12; nitrocefin (NCF) as reporter substrate
# T2 sequence (P0AD64 1-286 L31Q/G234S/E235K): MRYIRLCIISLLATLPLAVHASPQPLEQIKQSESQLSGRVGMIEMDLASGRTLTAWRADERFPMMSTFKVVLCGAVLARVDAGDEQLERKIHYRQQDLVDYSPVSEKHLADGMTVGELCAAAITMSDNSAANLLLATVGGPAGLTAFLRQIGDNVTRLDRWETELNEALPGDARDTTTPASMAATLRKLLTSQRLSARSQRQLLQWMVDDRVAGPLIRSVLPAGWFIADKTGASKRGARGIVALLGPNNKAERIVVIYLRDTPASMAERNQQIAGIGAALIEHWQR
# [9] = target: T3, purified class A, C and D enzymes (β-lactamases) (Acinetobacter baumannii, UniProt Q9L4P2); test: biochemical; assay type: biochemical; settings: purified OXA-23; nitrocefin (NCF) as reporter substrate
# T3 construct: rows headed: Ki (OXA-23, NCF), uM; other: purified OXA-23; nitrocefin (NCF) as reporter substrate
# T3 sequence (Q9L4P2 whole entry): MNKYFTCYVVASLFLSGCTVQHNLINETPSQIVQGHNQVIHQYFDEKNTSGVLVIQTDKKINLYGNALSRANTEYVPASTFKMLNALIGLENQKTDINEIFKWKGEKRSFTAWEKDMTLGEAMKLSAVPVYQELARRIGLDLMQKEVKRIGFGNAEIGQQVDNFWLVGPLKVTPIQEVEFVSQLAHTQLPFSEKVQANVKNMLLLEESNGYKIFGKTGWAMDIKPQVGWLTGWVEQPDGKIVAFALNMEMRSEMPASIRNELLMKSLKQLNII
# [10] = minimum BLI concentration inhibiting growth with aztreonam 4 μg/mL, tested up to 40 μg/mL
# [11] = minimum BLI concentration inhibiting growth with meropenem 8 μg/mL, tested up to 20 μg/mL
# [12] = minimum BLI concentration inhibiting growth with tigemonam 4 μg/mL, tested up to 40 μg/mL
# [13] = purified CTX-M-14, nitrocefin (NCF) as reporter substrate
# [14] = purified P99, nitrocefin (NCF) as reporter substrate
# [15] = purified KPC-2, nitrocefin (NCF) as reporter substrate
# [16] = purified OXA-48, nitrocefin (NCF) as reporter substrate
# [17] = BLI concentration decreasing biapenem MIC 64-fold, from 32 μg/ml to 0.5 μg/ml, efflux deficient strain
# [18] = BLI concentration decreasing biapenem MIC 64-fold, from 32 μg/ml to 0.5 μg/ml, efflux proficient strain
Compound,BPM MPC1 OXA-48 KP1086 (KP1086 OXA-48),MPM MPC8 AB1053 OXA-72 (AB1053 OXA-72),BPM MPC1 KP1004 KPC-2 (KP1004 KPC-2 [1]),AZT MPC4 TEM-10 ec302 (ec302 TEM-10),AZT MPC4 ECL1002 (ECL1002),AZT MPC4 SHV-5 ec308 (ec308 SHV-5),AZT MPC4 CTX-M-15 KP1009 (KP1009 CTX-M-15),AZT MPC4 SHV-12 KP1010 (KP1010 SHV-12; [10]),AZT MPC4 CMY-6 EC1010 (EC1010 CMY-6; [10]),MPM MPC8 AB1054 OXA-23 (AB1054 OXA-23; [11]),TIG MPC4 CTX-M-14 KP1005 (KP1005 CTX-M-14; [12]),AZT MPC4 KPC-2 KP1004 (KP1004 KPC-2 [2]; [10]),"Ki (CTX-M-14, NCF), uM [3, 13]","Ki (P99, NCF), uM [4, 14]","Ki (KPC-2, NCF), uM [5, 15]",pKi [8],pKi [9],"Ki (OXA-48, NCF), uM [7, 16]",PAM1154/KPC-2 Biapenem MPC64 (PAM1154/KPC-2; [17]),PAM1032/KPC-2 Biapenem MPC64 (PAM1032/KPC-2; [18]),other results
"O=C([O-])c1c(F)ccc2c1O[B-](O)(O)CC2.[Na+].[Na+] [Compound 8, DISODIUM; 8-FLUORO-4,4-DIHYDROXY-5-OXA-4-BORANUIDABICYCLO[4.4.0]DECA-1(6),7,9-TRIENE-7-CARBOXYLATE]",X (X = MPC@1 ≤ 5 μg/mL),X (X = MPC@1 ≤ 5 μg/mL),X (X = MPC@1 ≤ 5 μg/mL),X (X = MPC@4 ≤ 5 μg/mL),X (X = MPC@4 ≤ 5 μg/mL),X (X = MPC@4 ≤ 5 μg/mL),X (X = MPC@4 ≤ 5 μg/mL),–,–,–,–,–,–,–,–,–,–,–,–,–,"AZT MPC4 SHV-12 KP1010 (KP1010 SHV-12): X (key: X = MPC@4 ≤ 5 μg/mL; Y = 5 μg/mL < MPC@4 ≤ 20 μg/mL; Z = MPC@4 > 20 μg/mL); AZT MPC4 CMY-6 EC1010 (EC1010 CMY-6): X (key: X = MPC@4 ≤ 5 μg/mL; Y = 5 μg/mL < MPC@4 ≤ 20 μg/mL; Z = MPC@4 > 20 μg/mL); MPM MPC8 AB1054 OXA-23 (AB1054 OXA-23): X (key: X = MPC@1 ≤ 5 μg/mL; Y = 5 μg/mL < MPC@1 ≤ 20 μg/mL; Z = MPC@1 > 20 μg/mL); TIG MPC4 CTX-M-14 KP1005 (KP1005 CTX-M-14): X (key: X = MPC@4 ≤ 5 μg/mL; Y = 5 μg/mL < MPC@4 ≤ 20 μg/mL; Z = MPC@4 > 20 μg/mL); AZT MPC4 KPC-2 KP1004 (KP1004 KPC-2 [2]): X (key: X = MPC@4 ≤ 5 μg/mL; Y = 5 μg/mL < MPC@4 ≤ 20 μg/mL; Z = MPC@4 > 20 μg/mL); Ki (CTX-M-14, NCF), uM [3]: X (key: X = Ki ≤ 0.1 μM; Y = 0.1 μM < Ki ≤ 1 μM; Z = Ki > 1 μM); Ki (P99, NCF), uM [4]: X (key: X = Ki ≤ 0.1 μM; Y = 0.1 μM < Ki ≤ 1 μM; Z = Ki > 1 μM); pKi (biochemical): > 7.00; Ki (KPC-2, NCF), uM [5]: X (key: X = Ki ≤ 0.1 μM; Y = 0.1 μM < Ki ≤ 1 μM; Z = Ki > 1 μM); pKi [6]: > 7.00; Ki (OXA-48, NCF), uM [7]: X (key: X = Ki ≤ 0.1 μM; Y = 0.1 μM < Ki ≤ 1 μM; Z = Ki > 1 μM); PAM1154/KPC-2 Biapenem MPC64 (PAM1154/KPC-2): 0.6; PAM1032/KPC-2 Biapenem MPC64 (PAM1032/KPC-2): 5"
"CSCC(=O)NC1CB(O)Oc2c(C(=O)O)cccc21 (centres unmarked) [Compound 3, 2-HYDROXY-4-(2-(METHYLTHIO)ACETAMIDO)-3,4-DIHYDRO-2H-BENZO[E][1.2]OXABORININE-8-CARBOXYLIC ACID]",X (X = MPC@1 ≤ 5 μg/mL),Y (Y = 5 μg/mL < MPC@1 ≤ 20 μg/mL),X (X = MPC@1 ≤ 5 μg/mL),X (X = MPC@4 ≤ 5 μg/mL),X (X = MPC@4 ≤ 5 μg/mL),X (X = MPC@4 ≤ 5 μg/mL),X (X = MPC@4 ≤ 5 μg/mL),X (X = MPC@4 ≤ 5 μg/mL),X (X = MPC@4 ≤ 5 μg/mL),Z (Z = MPC@1 > 20 μg/mL),X (X = MPC@4 ≤ 5 μg/mL),X (X = MPC@4 ≤ 5 μg/mL),X (X = Ki ≤ 0.1 μM),X (X = Ki ≤ 0.1 μM),X (X = Ki ≤ 0.1 μM),> 7.00,> 7.00,X (X = Ki ≤ 0.1 μM),2.5,20,"pKi ([6]; purified Pa-AmpC, nitrocefin (NCF) as reporter substrate, read-out: Ki (Pa-AmpC, NCF)): > 7.00"
"O=C(O)c1cccc2c1OB(O)CC2 [Compound 5, 2-HYDROXY-3,4-DIHYDRO-1,2-BENZOXABORININE-8-CARBOXYLIC ACID]",X (X = MPC@1 ≤ 5 μg/mL),Z (Z = MPC@1 > 20 μg/mL),X (X = MPC@1 ≤ 5 μg/mL),Z (Z = MPC@4 > 20 μg/mL),Z (Z = MPC@4 > 20 μg/mL),Z (Z = MPC@4 > 20 μg/mL),Y (Y = 5 μg/mL < MPC@4 ≤ 20 μg/mL),Y (Y = 5 μg/mL < MPC@4 ≤ 20 μg/mL),Y (Y = 5 μg/mL < MPC@4 ≤ 20 μg/mL),Y (Y = 5 μg/mL < MPC@1 ≤ 20 μg/mL),Z (Z = MPC@4 > 20 μg/mL),X (X = MPC@4 ≤ 5 μg/mL),X (X = Ki ≤ 0.1 μM),X (X = Ki ≤ 0.1 μM),X (X = Ki ≤ 0.1 μM),> 7.00,6.00 to 7.00,X (X = Ki ≤ 0.1 μM),0.3,20,–
"O=C(O)c1cccc2c1OB(O)CN2S(=O)(=O)Cc1ccccc1 [Compound 4, 4-(BENZYLSULFONYL)-2-HYDROXY-3,4-DIHYDRO-2H-BENZO[E][1,4,2]OXAZABORININE-8-CARBOXYLIC ACID]",Z (Z = MPC@1 > 20 μg/mL),–,X (X = MPC@1 ≤ 5 μg/mL),Z (Z = MPC@4 > 20 μg/mL),Z (Z = MPC@4 > 20 μg/mL),Z (Z = MPC@4 > 20 μg/mL),Z (Z = MPC@4 > 20 μg/mL),Z (Z = MPC@4 > 20 μg/mL),Z (Z = MPC@4 > 20 μg/mL),–,Z (Z = MPC@4 > 20 μg/mL),Z (Z = MPC@4 > 20 μg/mL),X (X = Ki ≤ 0.1 μM),X (X = Ki ≤ 0.1 μM),X (X = Ki ≤ 0.1 μM),> 7.00,–,X (X = Ki ≤ 0.1 μM),5,>80,–
"O=C(Cc1cccs1)NC1CB(O)Oc2c(C(=O)O)cccc21 (centres unmarked) [Compound 1, 2-HYDROXY-4-(2-(THIOPHEN-2-YL)ACETAMIDO)-3,4-DIHYDRO-2H-BENZO[E][1,2]OXABORININE-8-CARBOXYLIC ACID]",Y (Y = 5 μg/mL < MPC@1 ≤ 20 μg/mL),–,X (X = MPC@1 ≤ 5 μg/mL),X (X = MPC@4 ≤ 5 μg/mL),Y (Y = 5 μg/mL < MPC@4 ≤ 20 μg/mL),X (X = MPC@4 ≤ 5 μg/mL),X (X = MPC@4 ≤ 5 μg/mL),X (X = MPC@4 ≤ 5 μg/mL),X (X = MPC@4 ≤ 5 μg/mL),–,X (X = MPC@4 ≤ 5 μg/mL),X (X = MPC@4 ≤ 5 μg/mL),X (X = Ki ≤ 0.1 μM),X (X = Ki ≤ 0.1 μM),X (X = Ki ≤ 0.1 μM),> 7.00,–,X (X = Ki ≤ 0.1 μM),2.5,40,–
